Data on three compounds can be found in patent publication US4745124A, “Orally effective anti-hypertensive agents” (priority 1983, dated 1988).

The assay relates to pressor effects of angiotensin I. The experiment in a line: oral effectiveness: blood pressure response to angiotensin I in anesthetized rats. It is filed as in vivo, rat. On the procedure: Rats (210-290 g body weight) were fasted overnight and then anesthetized with intraperitoneal pentobarbital, 50-60 mg/kg. Tracheostomy was performed and the animals were ventilated mechanically. A cannula was inserted into a femoral vein for injection of angiotensin I or II, and a second cannula was inserted into a common carotid artery for direct measurement of arterial blood pressure. Heparin, 1,000 units, was injected via the femoral vein to prevent coagulation. Blood pressure was measured with a pressure transducer connected to a polygraph. The rats were injected with 80 ng of angiotensin I or angiotensin II in 20 μl of 0.9 g % NaCl; an amount of antiotensin I or II sufficient to raise mean arterial blood pressure by 27-40 mm Hg. After the responsiveness of a given rat to angiotensins I and II was established, compound (I), at 2 or 5 mg/kg (drug dissolved in 0.5 ml of H2 O plus 10 μl of 1N NaHCO3), was given via a stomach tube. At timed intervals, the effects of 80 ng of angiotensin I or angiotensin II on mean arterial blood pressure were tested.
Rats were prepared as described in Example 222. Compound (II) [N-benzoyl-L-phenylalanylthiopropanoyl)-L-proline] was given orally, via a stomach tube, at a dose of 12 mg/kg or 20 mg/kg. Compound (II) was dissolved in 0.5 ml of H2 O plus 10 μl of 1N NaHCO3. In all other respects, the experimental preparations were exactly as described in Example 222.
Rats (210-290 g body weight) were fasted overnight and then anesthetized with intraperitoneal pentobarbital, 50-60 mg/kg. Tracheostomy was performed and the animals were ventilated mechanically. A cannula was inserted into a femoral vein for injection of angiotensin I or II, and a second cannula was inserted into a common carotid artery for direct measurement of arterial blood pressure. Heparin, 1,000 units, was injected via the femoral vein to prevent coagulation. Blood pressure was measured with a pressure transducer connected to a polygraph. The rats were injected with 160 ng of angiotensin I or 80 ng of angiotensin II in 20 μl of 0.9 g % NaCl; an amount of angiotensin I or II sufficient to raise mean arterial blood pressure by 27-40 mm Hg. After the responsiveness of a given rat to angiotensins I and II was established, compound (B) at 10 mg (drug dissolved in 0.5 ml of H2 O plus 10 μl of 1N NaHCO3), was given via a stomach tube. At timed intervals, the effects of 160 ng of angiotensin I or 80 ng of angiotensin II on mean arterial blood pressure were tested. Results are shown below:
Rats (210-290 g body weight) were fasted overnight and then anesthetized with intraperitoneal pentobarbital, 50-60 mg/kg. Tracheostomy was performed and the animals were ventilated mechanically. A cannula was inserted into a femoral vein for injection of angiotensin I, and a second cannula was inserted into a common carotid artery for direct measurement of arterial blood pressure. Heparin, 1,000 units, was injected via the femoral vein to prevent coagulation. Blood pressure was measured with a pressure transducer connected to a polygraph. The rats were injected with 400 ng/kg of angiotensin I in 20 μl of 0.9 g % NaCl; an amount of angiotensin I sufficient to raise mean arterial blood pressure by 39 mm Hg. After the responsiveness of a given rat to angiotensin I was established, the named compound at 17 μmol/kg (drug dissolved in 0.15 ml of H2 O plus 10 μl of 1N NaHCO3), was given via a stomach tube. At timed intervals, the effects of 400 ng/kg of angiotensin I on mean arterial blood pressure were tested. Results are shown below:
Rats (190-290 g body weight) were fasted overnight and then anesthetized with intraperitoneal pentobarbital, 50-60 mg/kg. Tracheostomy was performed and the animals were ventilated mechanically. A cannula was inserted into a femoral vein for injection of angtiotensin I, and a second cannula was inserted into a common carotid artery for direct measurement of arterial blood pressure. […]

In the case of `C[C@H](CSC(=O)[C@@H](N)Cc1ccccc1)C(=O)N1CCC[C@H]1C(=O)O` [N-alpha-(3-L-phenylalanylthio-2-D-methylpropanoyl)-L-proline], the “Blood Pressure Response to 400 ng/kg of Angiotensin I” value (“Blood Pressure Response to 400 ng/kg” below) runs as follows: (oral 20 μmol/kg, 6 min, Ex. 237) 77 % of Control; (oral 20 μmol/kg, 10 min, Ex. 237) 69 % of Control; (oral 20 μmol/kg, 19 min, Ex. 237) 46 % of Control; (oral 20 μmol/kg, 25 min, Ex. 237) 38 % of Control; (oral 20 μmol/kg, 29 min, Ex. 237) 38 % of Control; (oral 20 μmol/kg, 38 min, Ex. 237) 33 % of Control. For the same compound, the “Blood Pressure Response to 400 ng/kg” value is, setting by setting: (oral 20 μmol/kg, 50 min, Ex. 237) 33 % of Control; (oral 20 μmol/kg, 57 min, Ex. 237) 31 % of Control; (oral 20 μmol/kg, 65 min, Ex. 237) 31 % of Control; (oral 20 μmol/kg, 74 min, Ex. 237) 26 % of Control; (oral 20 μmol/kg, 88 min, Ex. 237) 36 % of Control.

With `CC(=O)N[C@@H](Cc1ccccc1)C(=O)SC[C@@H](C)C(=O)N1CCC[C@H]1C(=O)O` [N-alpha-[3-(N-alpha-acetyl-L-phenylalanylthio)-2-D-methylpropanoyl]-L-proline], the “Blood Pressure Response to 400 ng/kg” value by setting is: (oral 13.6 μmole/kg, 3 min, Ex. 235) 40 % of Control; (oral 13.6 μmole/kg, 7 min, Ex. 235) 40 % of Control; (oral 13.6 μmole/kg, 13 min, Ex. 235) 28 % of Control; (oral 13.6 μmole/kg, 18 min, Ex. 235) 24 % of Control; (oral 13.6 μmole/kg, 23 min, Ex. 235) 20 % of Control; (oral 13.6 μmole/kg, 31 min, Ex. 235) 18 % of Control. For the same compound, the “Blood Pressure Response to 400 ng/kg” value by setting is: (oral 13.6 μmole/kg, 34 min, Ex. 235) 20 % of Control; (oral 13.6 μmole/kg, 42 min, Ex. 235) 20 % of Control; (oral 13.6 μmole/kg, 48 min, Ex. 235) 16 % of Control; (oral 13.6 μmole/kg, 58 min, Ex. 235) 16 % of Control; (oral 13.6 μmole/kg, 67 min, Ex. 235) 20 % of Control; (oral 13.6 μmole/kg, 80 min, Ex. 235) 20 % of Control. Moreover, the “Blood Pressure Response to 400 ng/kg” value is recorded as 18 % of Control (oral 13.6 μmole/kg, 90 min, Ex. 235); 16 % of Control (oral 13.6 μmole/kg, 100 min, Ex. 235); 20 % of Control (oral 13.6 μmole/kg, 112 min, Ex. 235); 20 % of Control (oral 13.6 μmole/kg, 125 min, Ex. 235); 30 % of Control (oral 13.6 μmole/kg, 137 min, Ex. 235); 50 % of Control (oral 13.6 μmole/kg, 167 min, Ex. 235).

`C[C@H](CSC(=O)[C@H](Cc1ccccc1)NC(=O)C1CCCC1)C(=O)N1CCC[C@H]1C(=O)O` [N-alpha-[3-(N-alpha-cyclopentylcarbonyl-L-phenylalanylthio)-2-D-methylpropanoyl]-L-proline]: the “Blood Pressure Response to 400 ng/kg” value is, setting by setting: (oral 23 μmole/kg, 2 min, Ex. 231) 71 % of Control; (oral 23 μmole/kg, 6 min, Ex. 231) 63 % of Control; (oral 23 μmole/kg, 16 min, Ex. 231) 49 % of Control; (oral 23 μmole/kg, 23 min, Ex. 231) 43 % of Control; (oral 23 μmole/kg, 37 min, Ex. 231) 43 % of Control; (oral 23 μmole/kg, 48 min, Ex. 231) 40 % of Control. For the same compound, the “Blood Pressure Response to 400 ng/kg” value (oral 23 μmole/kg, 64 min, Ex. 231) is 26 % of Control; the “Blood Pressure Response to 400 ng/kg” value (oral 23 μmole/kg, 71 min, Ex. 231) is recorded as 26 % of Control; the “Blood Pressure Response to 400 ng/kg” value (oral 23 μmole/kg, 84 min, Ex. 231) is 37 % of Control; the “Blood Pressure Response to 400 ng/kg” value (oral 23 μmole/kg, 96 min, Ex. 231) was 37 % of Control; the “Blood Pressure Response to 400 ng/kg” value (oral 23 μmole/kg, 109 min, Ex. 231) was 40 % of Control; the “Blood Pressure Response to 400 ng/kg” value (oral 23 μmole/kg, 124 min, Ex. 231) was 54 % of Control. The “Blood Pressure Response to 400 ng/kg” value reads like this: (oral 23 μmole/kg, 140 min, Ex. 231) 51 % of Control; (oral 23 μmole/kg, 157 min, Ex. 231) 63 % of Control; (oral 23 μmole/kg, 171 min, Ex. 231) 77 % of Control.
